From US5430148A, “Antiproliferative quinazolines” (Agouron Pharmaceuticals, Inc., priority 1992, dated 1995)

Tests used:
[1] = literature; cited from earlier work
[2] = system: ovarian, liver and breast cancer; conditions: literature; cited from earlier work
[3] = system: CCRF-CEM cells; assay: Inhibition of growth of tumor cells, CCRF-CEM human lymphoblastic leukemia (MTT); type: cell-based; conditions: Homo sapiens, CCRF-CEM, 120 h, 5 days continuous exposure, MTT; read-out: Cell Culture IC50, CCRF-CEM
Procedure: (§1) In Vitro Testing to Determine Inhibition of Growth of Tumor Cells
(§2) Growth was measured over 3 days (L1210) or 5 days (CCRF-CEM, GC3 /M TK^-) of continuous exposure to varying concentrations of each test compound, added 4 h. after initial cell plating, by the MTT-tetrazolium reduction assay of T. J. Mosmann [J. Immunol. Meth. […] Water insoluble derivatives were dissolved in DMSO and diluted to a final concentration of 0.5% solvent in cell cultures.

[4] = system: GC3/M TK- cells; assay: Inhibition of growth of tumor cells, thymidine kinase-deficient human colon adenocarcinoma GC3/M TK- (MTT); type: cell-based; conditions: Homo sapiens, GC3/MTK-, 120 h, 5 days continuous exposure, MTT; read-out: Cell Culture IC50, GC3-M (TK-)
Procedure: as §1, §2

[5] = target: human TS (thymidylate synthase) (Homo sapiens, UniProt P04818); assay: Inhibition constants against 5,10-methylenetetrahydrofolate for thymidylate synthase, human enzyme (tritium release); type: biochemical; conditions: cofactor as variable substrate, pH 7.6, 24° C., read-out: Ki Data, human thymidylate synthase
Procedure: (§3) Determination of Inhibition Constants Against 5,10-Methylenetetrahydrofolate for the Enzyme Thymidylate Synthase
(§4) Inhibition constants, Ki, slope and Ki, intercept [W. W. Cleland, Biochim. Biophys. […] The cofactor was present as the variable substrate under conditions of saturating radiolabelled 2'-deoxyuridine 5-monophosphate (dUMP). […] Assays of human TS also contained 1-5 μg/mL bovine serum albumin to stabilize the protein. Reactions were initiated by the addition of enzyme and were carried out for 5 minutes at 24° C., and then quenched by the addition of charcoal (15 mg in 0.1 mL H2 O). The quenched samples were centrifuged at 10,000 rpm for 12-15 min at […] to remove unreacted dUMP which had bound to the charcoal, and 0.1 mL of the supernatant was counted by liquid scintillation in the presence of 5 mL ecolume to determine the release of tritium label from the 5-position of the dUMP. […] Experimental results were analyzed by EZ-FIT, a nonlinear regression analysis program (Perrella Scientific, Springfield, Pa.) which was used to fit all data points simultaneously to a mixed noncompetitive inhibition scheme.

[6] = system: L1210 murine leukemia cells; assay: Inhibition of growth of tumor cells, L1210 murine leukemia (MTT); type: cell-based; conditions: Mus musculus, L1210, 72 h, 3 days continuous exposure, MTT; read-out: Cell Culture IC50, L1210
Procedure: as §1, §2

[7] = target: E. coli TS (thymidylate synthase) (Escherichia coli, UniProt P0A884); assay: Inhibition constants against 5,10-methylenetetrahydrofolate for thymidylate synthase, E. coli enzyme (tritium release); type: biochemical
Procedure: as §3, §4

Chain of E. coli TS (thymidylate synthase) (P0A884 whole entry): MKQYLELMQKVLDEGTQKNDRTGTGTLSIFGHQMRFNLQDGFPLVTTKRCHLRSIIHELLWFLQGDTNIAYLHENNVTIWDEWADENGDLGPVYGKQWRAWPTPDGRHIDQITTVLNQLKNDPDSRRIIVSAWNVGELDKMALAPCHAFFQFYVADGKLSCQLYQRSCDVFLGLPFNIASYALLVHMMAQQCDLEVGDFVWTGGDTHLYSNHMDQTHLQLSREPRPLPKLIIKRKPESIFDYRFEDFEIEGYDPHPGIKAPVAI
Chain of human TS (thymidylate synthase) (P04818 2-313 limits assumed): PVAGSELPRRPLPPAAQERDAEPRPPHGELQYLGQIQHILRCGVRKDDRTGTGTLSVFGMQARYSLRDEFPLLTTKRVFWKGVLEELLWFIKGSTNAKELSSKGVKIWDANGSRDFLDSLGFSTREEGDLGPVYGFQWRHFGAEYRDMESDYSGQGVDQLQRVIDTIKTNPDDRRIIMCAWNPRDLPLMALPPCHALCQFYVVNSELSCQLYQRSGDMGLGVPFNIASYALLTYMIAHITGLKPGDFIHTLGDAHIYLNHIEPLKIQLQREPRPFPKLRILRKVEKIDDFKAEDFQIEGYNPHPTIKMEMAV

In the case of `C#CCN(Cc1ccc2nc(N)[nH]c(=O)c2c1)c1ccc(C(=O)N[C@@H](CCC(=O)O)C(=O)O)cc1` [10-propargyl-5,8-dideazafolic acid], the toxicities [1] is given as “troublesome hepatic and renal toxicities” and the activity against cancer [2] is given as “activity against ovarian, liver and breast cancer”.

In the case of `Cc1nc2cccc(Cn3cncc3-c3ccccc3)c2c(=O)[nH]1` [Compound 31A], the IC50 [3] is reported as greater than 50 µM, the IC50 [4] is reported as greater than 50 µM and the Ki [5] is reported as 51 ± 2.2 µM. It also gave an IC50 [6] of 48 µM and a Ki [7] of 21 ± 6 µM.

With `Cc1nc2cccc(C(O)(c3ccccc3)c3ccccc3)c2c(=O)[nH]1` [Compound 6A, 3,4-Dihydro-5-(α-diphenyl-hydroxymethyl)-2-methyl-4-oxo-quinazoline] the IC50 [3] was 4 µM, the IC50 [4] was greater than 4.98 µM and the Ki [5] was greater than 10 µM. It also gave an IC50 [6] of 2.3 µM and a Ki [7] greater than 10 µM.
